Assays:
MCAO rats = assay: Neurological symptoms of MCAO rats (Zea Longa 5 grades); format: in vivo, rat; conditions: 0-4 points; for neurological symptoms evaluation (3 d): model group 1.74 ± 0.73; for neurological symptoms evaluation (7 d): model group 1.61 ± 0.96
Method: 140 healthy SD male rats, weighing 280-300 g, provided by Beijing Vital River Laboratories, certificate No.: SCXK (Jing) 2002-2003.
Tetramethylpyrazine (TMP), vanillic acid, LQC-T4 (self made), the purity ≧98%, determined using high performance liquid chromatography (HPLC), which met the requirement of experiment, the powder being carefully sealed and preserved at 4° C., and imodipine (ShanDong XinHua Pharmaceutical CO., Ltd, batch No.: 0908164).
The method of [Koizumi J, Yoshida Y, Nakazawa T, Ooneda G. Experimental studies of ischemia brain edema, I: A new experimental model of cerebral embolism in rats in which recirculation can be introduced in the ischemic area[J]. Jpn J Stroke, 1986, 8:1-8] was referred to in order to establish the MCAO model. After the rats were anesthetized and the skin thereof was disinfected by ethanol. By cutting right in the middle of the neck, the right common carotid artery, internal carotid artery and external carotid artery were separated and the common carotid artery and external carotid artery were ligated. The internal carotid artery was clamped with a bulldog clamp. A cut was made at the crotch of the external carotid artery and the internal carotid artery followed by releasing the bulldog clamp. The nylon wire was inserted into the cut with the deep of about a little longer than 18 mm to achieve the cerebral ischemia caused by cerebral artery occlusion. Next, the external carotid artery was ligated and the nylon wire was fixed. In sham operation group, the right common carotid artery, the external carotid artery and the internal carotid artery were only exposed and separated. The rats were routinely raised in different cages. 0.5 ml penicillin was continuously injected into every mouse for three days after the surgery.
The evaluating standard of the neurological symptoms of MCAO rats were carried out according to the Zea Longa 5 grades evaluating method, that is, the rats were evaluated when they were conscious after 6 h after the surgery: no apparent neurological symptom, 0 point; not being able to completely stretch the left front claw, 1 point; whirling leftward, 2 point; leaning leftward when walking, 3 point; having an epileptic seizure, losing consciousness and not being able to walk independently, as 4 point. The rats getting 1-3 point were selected for the subsequent experiment. The MCAO rats having the same point were distributed randomly and averagely to each experimental group.
There were sham operation group, model group, Nimodipine group, LQC-T 4 large dosage group, LQC-T4 small dosage group, TMP group and TMP+Vanillic acid group. 0.5% CMC-Na (1 ml·100 g^−1) was administrated intragastrically to the blank group and model group, two dosage groups of 120 mg·kg^−1 and 60 mg·kg^−1 were intragastrically administrated to the LQC-T4(1 ml·100 g^−1) group, and 74 mg·kg^−1 TMP+46 mg·kg^−1 vanillitc acid (1 ml·100 g^−1) were intragastrically administrated, once a day continuously for 10 days.
The SPSS 11.0 software pack was used to carry out the statistical analysis of all the data. The comparison of the enumeration data was carried out with X^2 test P<0.05 had statistical meaning.

MDA = MDA of MCAO rats (brain homogenate, kit); format: in vivo, rat; conditions: model group 14.53 ± 3.29
Method: 10% chloral hydrate 0.35 g/kg was injected into the abdominal cavity of a rat to anesthetize thereof. The rat was fixed as supine position. The skin was disinfected thereof by 75% medical alcohol. It was cut right in the middle of the neck. The right common carotid artery, internal carotid artery and external carotid artery were separated and the common carotid artery and external carotid artery were ligated. The internal carotid artery was clamped with a bulldog clamp. A cut was made at the crotch of the external carotid artery and the internal carotid artery followed by releasing the bulldog clamp. The nylon wire (diameter 0.25 mm, marked at a distance of 18 mm from the head end) was inserted into the cut and the insertion was stopped when some resistance was felt. The insert depth was a little longer than 18 mm to achieve the cerebral ischemia caused by middle cerebral artery occlusion. The internal carotid artery was ligated and the nylon wire was fixed. The muscle and skin were sutured layer by layer. In sham operation group, the right common carotid artery, the external carotid artery and the internal carotid artery were only exposed and separated. The rats were conventionally raised in different cages regularly. 0.5 ml penicillin was continuously injected into every rat for three days after the surgery.
The rats were divided into 7 groups in the experiment, that is, sham operation group, model group, Nimodipine group, LQC-T4 large dosage group, LQC-T4 small dosage group, TMP group, and TMP+Vanillic acid group. The model rats getting 1 point were distributed randomly into the model group and other administration group, while the rats getting 2 point and 3 point were distributed randomly into above 6 groups according the above method and sham operation group was not involved in the above grouping. 0.5% CMC-NA (1 ml·100 g^−1) was administrated intragastrically to the blank control group and the model group, two dosage group of 120 mg·kg^−1, 60 mg·kg^−1 were administrated intragastrically to the LQC-T4 (1 ml·100 g^−1) group, and 74 mg·kg^−1 TMP+46 mg·kg^−1 vanillitc acid (1 ml·100 g^−1) were administrated intragastrically, once per day continuously for 10 days.
10% chloral hydrate 0.35 g/kg was injected into the abdominal cavity to anesthetize them after the rats were administrated for 10 days. The head was cut and the brain was taken. The cranial bones were stripped, the meninges were peeled off to separate the ischemia side of the brain, the blood streak was striped and then the brain was weighed. 4 times amount of 0.9 physiological saline was added and the brain was homogenized in 0° C. ice bath. […]
It was detected with 722 type visible spectrophotometer according to the kit operation. […]

[1] = 60 mg/kg intragastrically once a day
[2] = 120 mg/kg intragastrically once a day

SMILES: COc1cc(C(=O)OCc2nc(C)c(C)nc2C)ccc1OCc1nc(C)c(C)nc1C [LQC-T4, (3,5,6-trimethylpyrazine-2-yl)methyl 3-methoxy-4-((3,5,6-trimethylpyrazine-2-yl)methoxy) benzoate]
- neurological symptoms evaluation (3 d) (MCAO rats; [1]): 1.40 ± 0.51
- neurological symptoms evaluation (7 d) (MCAO rats; [1]): 1.26 ± 0.35
- neurological symptoms evaluation (3 d) (MCAO rats; [2]): 1.29 ± 0.47
- neurological symptoms evaluation (7 d) (MCAO rats; [2]): 1.60 ± 0.74
- MDA (MDA; 60 mg/kg intragastrically once per day for 10 days): 14.32 ± 6.31
- MDA (MDA; 120 mg/kg intragastrically once per day for 10 days): 11.08 ± 4.53

SMILES: COCCOC(=O)C1=C(C)NC(C)=C(C(=O)OC(C)C)C1c1cccc([N+](=O)[O-])c1 (stereo not drawn) [Nimodipine, reference compound]
- neurological symptoms evaluation (3 d) (MCAO rats; 30 mg/kg once a day): 1.35 ± 0.49
- neurological symptoms evaluation (7 d) (MCAO rats; 30 mg/kg once a day): 1.11 ± 0.48
- MDA (MDA; 30 mg/kg once per day for 10 days): 13.70 ± 6.56

SMILES: Cc1nc(C)c(C)nc1C [TMP, tetramethylpyrazine, reference compound]
- neurological symptoms evaluation (3 d) (MCAO rats; 37 mg/kg once a day): 1.36 ± 0.50
- neurological symptoms evaluation (7 d) (MCAO rats; 37 mg/kg once a day): 1.67 ± 0.78
- MDA (MDA; 37 mg/kg once per day for 10 days): 13.27 ± 3.96

Reference: US8987449B2, “Medicine for treating ischemic brain injury and its sequelae, and preparation method thereof” (Haimin Lei, priority 2011, dated 2015)
